# Laboratory results published in article PMC6130634 (Pharmaceutical Biology, 2017).
# Columns and labels:
# [1] = Oral pharmacokinetics of ChA in beagle plasma; format: in vivo, beagles; settings: dog, 60 mg/kg
# [2] = Stability of ChA in beagle faeces under various storage conditions; format: in vitro ADME
# [3] = Stability of ChA in beagle urine under various storage conditions; format: in vitro ADME
smiles,measurement,setting,value
"O=C(/C=C/c1ccc(O)c(O)c1)O[C@@H]1C[C@](O)(C(=O)O)C[C@@H](O)[C@H]1O [ChA, Chlorogenic acid]",AUC(0-inf),[1],6320 ± 1850 ng·h/mL
same,AUC(0-t),[1],5590 ± 1410 ng·h/mL
same,Cmax,[1],2350 ± 483 ng/mL
same,Tmax,[1],1.86 ± 0.499 h
same,half-life,[1],0.911 ± 0.187 h
same,time ChA was stable,"[2]; faeces, room temperature",≥ 6 h
same,time ChA was stable,"[2]; faeces, −70 °C",≥ 170 h
same,time ChA was stable,"[2]; processed faeces, 4 °C",at least 8 h
same,time ChA was stable,"[3]; processed urine, 4 °C",at least 8 h
same,time ChA was stable,"[3]; urine, room temperature",≥ 6 h
same,time ChA was stable,"[3]; urine, −70 °C",at least 20 d
